From article PMC8092218, “NirA Is an Alternative Nitrite Reductase from Pseudomonas aeruginosa with Potential as an Antivirulence Target” (mBio, 2021)

Molecular target: T1, PA4130 (NirA) (Pseudomonas aeruginosa, UniProt Q9HWQ1)
T1 construct: full ORF, N-terminal hexahistidine tag, plasmid pSK4130-N; coexpressed with E. coli cysG in E. coli NiCo21; IMAC and chitin column; monomer; siroheme and 4Fe-4S
Assay: reduced methyl viologen oxidation assay, spectrophotometric; Griess diazotization
Assay type: biochemical
Conditions: electron acceptor; reduced methyl viologen or dithionite-reduced spinach ferredoxin as donor; anaerobic

T1 sequence (Q9HWQ1 entry or part of it): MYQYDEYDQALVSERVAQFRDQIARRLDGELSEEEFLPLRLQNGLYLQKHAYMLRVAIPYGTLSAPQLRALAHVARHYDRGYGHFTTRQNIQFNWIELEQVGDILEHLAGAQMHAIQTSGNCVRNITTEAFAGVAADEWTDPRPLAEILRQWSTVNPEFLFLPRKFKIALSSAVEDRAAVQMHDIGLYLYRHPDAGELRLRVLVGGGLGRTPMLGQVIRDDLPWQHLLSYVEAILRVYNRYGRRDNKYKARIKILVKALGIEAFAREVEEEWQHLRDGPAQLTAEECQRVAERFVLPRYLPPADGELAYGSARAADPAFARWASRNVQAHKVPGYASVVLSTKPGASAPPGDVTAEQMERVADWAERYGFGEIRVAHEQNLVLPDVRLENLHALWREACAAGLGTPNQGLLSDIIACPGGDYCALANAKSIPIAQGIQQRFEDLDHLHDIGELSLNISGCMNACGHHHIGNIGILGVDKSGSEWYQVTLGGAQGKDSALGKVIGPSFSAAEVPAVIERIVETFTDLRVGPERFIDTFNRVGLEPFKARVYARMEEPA

Compound: O=NO [nitrite]
- reduced methyl viologen oxidation assay, spectrophotometric; Griess diazotizatio: PA4130 was able to oxidize MV only in the presence of nitrite
